Test results taken from ChEMBL document CHEMBL5634151, “Anti-adipogenic action of a novel oxazole derivative through activation of AMPK pathway” (Eur J Med Chem, 2023).
Activity calls are given as the source filed them. The calls are words filed in the database; no cut-off is given here.

What was measured:
3T3-L1 [1] = test: Upregulation of CII-SDHB protein expression in mouse 3T3-L1 mature adipocytes at 1 to 5 uM incubated for 24 hrs by Western blot analysis; assay type: functional, cell-based; conditions: dose 1-5 µM
3T3-L1 [2] = test: Inhibition of MDI-cocktail induced mTOR phosphorylation at Ser2448 residue in mouse 3T3-L1 pre-adipocyte cells at 5 uM by immunoblotting analysis; assay type: cell-based
Syrian golden hamster [3] = test: Anti-obesity activity in high-fat diet induced Syrian golden hamster model assessed as reduction in fat mass at 50 mg/kg, po administered for 7 days by 1H NMR spectroscopy-based Echo MRI system; assay type: functional, organism-based; conditions: Mesocricetus auratus, time 7.0 day
Syrian golden hamster [4] = test: Anti-dyslipidaemic activity in high-fat diet induced Syrian golden hamster model assessed as assessed as increase in serum HDL level at 25 to 50 mg/kg, po administered for 7 days; assay type: functional, organism-based; conditions: Mesocricetus auratus, dose 25-50 mg/kg, time 7.0 day
3T3-L1 [5] = test: Induction of cell cycle arrest in MDI-cocktail differentiated mouse 3T3-L1 pre-adipocyte cells assessed as reduction in cyclin D3 protein expression at 5 uM measured after 16 to 24 hrs by immunoblotting analysis; assay type: functional, cell-based; conditions: time 16-24 hrs
3T3-L1 [6] = test: Inhibition of MDI-cocktail induced adipogenic differentiation in mouse 3T3-L1 pre-adipocyte cells assessed as increase in AMPK phosphorylation at Thr172 residue by Western blot analysis; assay type: functional, cell-based; conditions: dose 0.5-5 µM
3T3-L1 [7] = test: Anti-adipogenic activity in MDI-cocktail differentiated mouse 3T3-L1 pre-adipocyte cells assessed as reduction in adipogenic differentiation at 5 uM measured after 3 to 5 days by Oil Red O staining based microscopic analysis; assay type: functional, cell-based; conditions: time 3-5 day
Syrian golden hamster [8] = test: Anti-dyslipidaemic activity in high-fat diet induced Syrian golden hamster model assessed as assessed as reduction in serum LDL-cholesterol level at 25 to 50 mg/kg, po administered for 7 days; assay type: functional, organism-based; conditions: Mesocricetus auratus, dose 25-50 mg/kg, time 7.0 day
C3H 10T1/2 [9] = test: Anti-adipogenic activity in MDI-cocktail differentiated mouse C3H 10T1/2 cells assessed as reduction in adipogenic differentiation at 5 uM measured after 0 to 7 days by Oil Red O staining based microscopic analysis; assay type: functional, cell-based; conditions: time 0-7 day
C3H 10T1/2 [10] = test: Inhibition of MDI-cocktail induced adipogenic differentiation in mouse C3H 10T1/2 cells assessed as reduction in lipid bound stain absorbance at 0.5 to 25 uM by Oil Red O staining based microscopic analysis; assay type: functional, cell-based; conditions: dose 0.5-25 µM
3T3-L1 [11] = test: Induction of proton leak during early phase in MDI-cocktail differentiated mouse 3T3-L1 pre-adipocyte cells 5 uM incubated for 72 hrs by Seahorse XFp flux analyzer; assay type: functional, cell-based
3T3-L1 [12] = test: Anti-adipogenic activity in MDI-cocktail differentiated mouse 3T3-L1 pre-adipocyte cells assessed as inhibition of adipogenesis at 20 uM by Oil Red O staining based microscopic analysis relative to control; assay type: functional
3T3-L1 [13] = test: Anti-adipogenic activity in MDI-cocktail differentiated mouse 3T3-L1 pre-adipocyte cells assessed as reduction in adipogenic differentiation at 5 uM measured after 0 to 7 days by Oil Red O staining based microscopic analysis; assay type: functional, cell-based; conditions: time 0-7 day
C3H 10T1/2 [14] = test: Anti-adipogenic activity in MDI-cocktail differentiated mouse C3H 10T1/2 cells assessed as reduction in adipogenic differentiation at 5 uM measured after 3 to 5 days by Oil Red O staining based microscopic analysis; assay type: functional, cell-based; conditions: time 3-5 day
Syrian golden hamster [15] = test: Anti-obesity activity in high-fat diet induced Syrian golden hamster model assessed as rescue of normal eWAT weight at 25 to 50 mg/kg, po administered for 7 days; assay type: functional, organism-based; conditions: Mesocricetus auratus, dose 25-50 mg/kg, time 7.0 day
3T3-L1 [16] = test: Induction of mitochondrial respiration in MDI-cocktail differentiated mouse 3T3-L1 pre-adipocyte cells assessed as increase in oxygen consumption rate at 5 uM incubated for 72 hrs in presence of rotenone/antimycin A mixture by Seahorse XFp flux analyzer; assay type: functional, cell-based
3T3-L1 [17] = test: Anti-adipogenic activity in MDI-cocktail differentiated mouse 3T3-L1 pre-adipocyte cells assessed as reduction in C/EBPalpha protein expression at 5 uM measured for 3 to 7 days by immunoblotting analysis; assay type: functional, cell-based; conditions: time 3-7 day
3T3-L1 [18] = test: Anti-adipogenic activity in MDI-cocktail differentiated mouse 3T3-L1 pre-adipocyte cells assessed as increase in AMPK phosphorylation at Thr172 residue at 5 uM measured for 3 to 7 days by immunoblotting analysis; assay type: functional, cell-based; conditions: time 3-7 day
3T3-L1 [19] = test: Anti-adipogenic activity in MDI-cocktail differentiated mouse 3T3-L1 pre-adipocyte cells assessed as reduction in adipogenic differentiation at 5 uM measured after 5 to 7 days by Oil Red O staining based microscopic analysis; assay type: functional, cell-based; conditions: time 5-7 day
Syrian golden hamster [20] = test: Hepatoprotective activity in high-fat diet induced Syrian golden hamster model assessed as reduction in serum AST level at 25 to 50 mg/kg, po administered for 7 days; assay type: functional, organism-based; conditions: Mesocricetus auratus, dose 25-50 mg/kg, time 7.0 day
C3H 10T1/2 [21] = test: Anti-adipogenic activity in MDI-cocktail differentiated mouse C3H 10T1/2 cells assessed as reduction in adipogenic differentiation at 5 uM measured after 0 to 3 days by Oil Red O staining based microscopic analysis; assay type: functional, cell-based; conditions: time 0-3 day
3T3-L1 [22] = test: Anti-adipogenic activity in MDI-cocktail differentiated mouse 3T3-L1 pre-adipocyte cells assessed as reduction in FABP4 protein expression at 5 uM measured for 3 to 7 days by immunoblotting analysis; assay type: functional, cell-based; conditions: time 3-7 day
3T3-L1 [23] = test: Anti-adipogenic activity in MDI-cocktail differentiated mouse 3T3-L1 pre-adipocyte cells assessed as reduction in adipogenic differentiation at 5 uM measured after 3 to 7 days by Oil Red O staining based microscopic analysis; assay type: functional, cell-based; conditions: time 3-7 day
3T3-L1 [24] = test: Inhibition of MDI-cocktail induced AKT phosphorylation at Ser473 residue in mouse 3T3-L1 pre-adipocyte cells at 5 uM by immunoblotting analysis; assay type: cell-based
3T3-L1 [25] = test: Inhibition of MDI-cocktail induced adipogenic differentiation in mouse 3T3-L1 pre-adipocyte cells assessed as reduction in FABP4 gene expression at 5 uM by qRT-PCR analysis; assay type: functional, cell-based
3T3-L1 [26] = test: Induction of cell cycle arrest in MDI-cocktail differentiated mouse 3T3-L1 pre-adipocyte cells assessed as reduction in cyclin D1 protein expression at 5 uM measured after 16 to 24 hrs by immunoblotting analysis; assay type: functional, cell-based; conditions: time 16-24 hrs
3T3-L1 [27] = test: Anti-adipogenic activity in MDI-cocktail differentiated mouse 3T3-L1 pre-adipocyte cells assessed as inhibition of adipogenesis by Oil Red O staining based microscopic analysis; assay type: functional, cell-based
3T3-L1 [28] = test: Cytotoxicity against mouse 3T3-L1 pre-adipocyte cells assessed as reduction in cell viability 100 uM incubated for 48 hrs by MTT assay; assay type: toxicity, cell-based; conditions: 3t3-l1, 48 h
3T3-L1 [29] = test: Upregulation of CIV-MTCO1 protein expression in mouse 3T3-L1 mature adipocytes at 1 to 5 uM incubated for 24 hrs by Western blot analysis; assay type: functional, cell-based; conditions: dose 1-5 µM
Syrian golden hamster [30] = test: Anti-obesity activity in high-fat diet induced Syrian golden hamster model assessed as reduction in adipose hypertrophy at 50 mg/kg, po administered for 7 days by H and E staining based inverted microscopic analysis; assay type: functional, organism-based; conditions: Mesocricetus auratus, time 7.0 day
3T3-L1 [31] = test: Anti-adipogenic activity in MDI-cocktail differentiated mouse 3T3-L1 pre-adipocyte cells assessed as reduction in adipogenic differentiation at 5 uM measured after 0 to 5 days by Oil Red O staining based microscopic analysis; assay type: functional, cell-based; conditions: time 0-5 day
3T3-L1 [32] = test: Inhibition of MDI-cocktail induced adipogenic differentiation in mouse 3T3-L1 pre-adipocyte cells assessed as inhibition of lipid accumulation by Oil Red O staining based microscopic analysis; assay type: functional, cell-based; conditions: dose 0.5-20 µM

Cc1ccc(-c2cnc(-c3ccc[n+](Cc4cccc(C)c4)c3)o2)cc1.[Br-]
Activity (3T3-L1 [1]): Active | inhibition (3T3-L1 [2]): Active | Activity (Syrian golden hamster [3]): Active | Activity (Syrian golden hamster [4]): inactive | Activity (3T3-L1 [5]): Active | inhibition (3T3-L1 [6]): Dose-Dependent Effect | Activity (3T3-L1 [7]): Active | Activity (Syrian golden hamster [8]): Active | Activity (C3H 10T1/2 [9]): Active | inhibition (C3H 10T1/2 [10]): Active | Activity (3T3-L1 [11]): Active | inhibition at 20 µM (3T3-L1 [12]): > 70% | Activity (3T3-L1 [13]): Active | Activity (C3H 10T1/2 [14]): Active | Activity (Syrian golden hamster [15]): Active | Activity (3T3-L1 [16]): Active | Activity (3T3-L1 [17]): Active | Activity (3T3-L1 [18]): Active | Activity (3T3-L1 [19]): Active | Activity (Syrian golden hamster [20]): Active | Activity (C3H 10T1/2 [21]): Active | Activity (3T3-L1 [22]): Active | Activity (3T3-L1 [23]): Active | inhibition (3T3-L1 [24]): Active | inhibition (3T3-L1 [25]): Active | Activity (3T3-L1 [26]): Active | IC50 (3T3-L1 [27]; read-out: IC50): 390 nM | IC50 (3T3-L1 [27]; read-out: pIC50 (converted)): 390 nM | Activity (3T3-L1 [28]): Toxic | Activity (3T3-L1 [29]): Active | Activity (Syrian golden hamster [30]): Active | Activity (3T3-L1 [31]): Active | inhibition (3T3-L1 [32]): Active
